Experimental data published in ChEMBL document CHEMBL1136988, “1-amino-4-benzylphthalazines as orally bioavailable smoothened antagonists with antitumor activity” (J Med Chem, 2009).

Tests used:
[1] = biological target: T1, Protein smoothened (Mus musculus, UniProt P56726); type: cell-based, TM3
Description: Inhibition of Smoothened receptor in mouse TM3 cells transfected with pTA-8xGli-Luc reporter gene assessed as inhibition of 25 nM 3-chloro-4,7-difluoro-N-(4-methoxy-3-(pyridin-4-yl)benzyl)-N-(4-(methylamino)cyclohexyl)benzo[b]thiophene-2-carboxamide-induced Hedgehog pathway activation by Gli shift assay

[2] = biological target: T1, Protein smoothened; test: Inhibition of Smoothened receptor in mouse TM3 cells transfected with pTA-8xGli-Luc reporter gene assessed as inhibition of 1 nM 3-chloro-4,7-difluoro-N-(4-methoxy-3-(pyridin-4-yl)benzyl)-N-(4-(methylamino)cyclohexyl)benzo[b]thiophene-2-carboxamide-induced Hedgehog pathway activation by Gli shift assay; type: cell-based
[3] = biological target: T1, Protein smoothened; test: Displacement of [3H]3-chloro-4,7-difluoro-N-(4-methoxy-3-(pyridin-4-yl)benzyl)-N-(4-(methylamino)cyclohexyl)benzo[b]thiophene-2-carboxamide from mouse Smoothened receptor expressed in CHO-K1 cells by membrane filter binding assay; type: cell-based
[4] = biological target: Protein smoothened (Homo sapiens, UniProt Q99835); test: Displacement of [3H]3-chloro-4,7-difluoro-N-(4-methoxy-3-(pyridin-4-yl)benzyl)-N-(4-(methylamino)cyclohexyl)benzo[b]thiophene-2-carboxamide from human Smoothened receptor expressed in CHO-K1 cells by membrane filter binding assay; type: cell-based
Chain of Protein smoothened (Homo sapiens, UniProt Q99835) (Q99835 whole entry): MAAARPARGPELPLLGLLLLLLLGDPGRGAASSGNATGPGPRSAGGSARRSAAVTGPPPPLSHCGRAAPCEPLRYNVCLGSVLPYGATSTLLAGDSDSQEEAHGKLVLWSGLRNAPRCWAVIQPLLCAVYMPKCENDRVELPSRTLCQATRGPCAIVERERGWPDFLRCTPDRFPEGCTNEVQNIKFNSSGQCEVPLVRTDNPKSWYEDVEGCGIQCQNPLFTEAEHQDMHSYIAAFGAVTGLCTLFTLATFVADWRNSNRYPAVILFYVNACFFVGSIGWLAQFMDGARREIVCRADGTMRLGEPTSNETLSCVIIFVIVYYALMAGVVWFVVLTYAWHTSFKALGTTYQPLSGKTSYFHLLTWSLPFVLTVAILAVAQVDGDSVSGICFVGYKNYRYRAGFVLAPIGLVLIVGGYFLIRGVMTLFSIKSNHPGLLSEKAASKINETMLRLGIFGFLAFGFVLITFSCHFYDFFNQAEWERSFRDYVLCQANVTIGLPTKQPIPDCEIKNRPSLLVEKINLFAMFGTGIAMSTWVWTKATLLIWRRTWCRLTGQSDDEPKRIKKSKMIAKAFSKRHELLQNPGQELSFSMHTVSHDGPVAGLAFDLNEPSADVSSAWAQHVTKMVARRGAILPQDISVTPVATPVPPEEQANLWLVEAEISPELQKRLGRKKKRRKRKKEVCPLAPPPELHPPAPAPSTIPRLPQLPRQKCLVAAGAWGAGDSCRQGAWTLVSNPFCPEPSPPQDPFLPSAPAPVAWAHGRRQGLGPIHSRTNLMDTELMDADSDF

T1 sequence (P56726 whole entry): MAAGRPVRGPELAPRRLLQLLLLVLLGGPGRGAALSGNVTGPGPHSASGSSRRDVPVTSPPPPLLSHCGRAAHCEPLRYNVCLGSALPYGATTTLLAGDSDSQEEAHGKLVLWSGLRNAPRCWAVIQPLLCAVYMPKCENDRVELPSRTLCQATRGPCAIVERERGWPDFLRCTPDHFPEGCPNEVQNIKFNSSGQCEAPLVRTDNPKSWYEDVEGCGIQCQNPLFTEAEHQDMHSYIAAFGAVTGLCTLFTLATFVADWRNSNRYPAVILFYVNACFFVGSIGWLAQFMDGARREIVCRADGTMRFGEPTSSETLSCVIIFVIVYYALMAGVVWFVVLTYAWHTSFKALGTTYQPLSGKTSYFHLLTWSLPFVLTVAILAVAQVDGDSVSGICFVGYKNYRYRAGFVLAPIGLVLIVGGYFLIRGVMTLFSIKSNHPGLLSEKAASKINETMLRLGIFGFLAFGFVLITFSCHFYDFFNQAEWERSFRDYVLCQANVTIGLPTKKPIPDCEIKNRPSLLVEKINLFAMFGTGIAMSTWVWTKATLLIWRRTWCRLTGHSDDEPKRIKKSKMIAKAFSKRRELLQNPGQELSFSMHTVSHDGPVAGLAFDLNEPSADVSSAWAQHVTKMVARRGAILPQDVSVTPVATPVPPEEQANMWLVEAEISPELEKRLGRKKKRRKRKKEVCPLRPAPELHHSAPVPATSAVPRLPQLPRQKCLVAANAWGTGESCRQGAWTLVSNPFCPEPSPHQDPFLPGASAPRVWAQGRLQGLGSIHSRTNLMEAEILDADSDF

Compound	IC50 [1] [nM]	IC50 [2] [nM]	IC50 [3] [nM]	IC50 [4] [nM]
CC(C)(N)c1ccc(N2CCN(c3nnc(Cc4ccccc4)c4ccccc34)CC2)nc1	42	1.3	6	15
N#Cc1ccc(N2CCN(c3cnc(Cc4ccccc4)c4ccccc34)CC2)nc1	2500	910	> 5000	> 5000
CC(O)(CO)c1ccc(N2CCN(c3nnc(Cc4ccccc4)c4ccccc34)CC2)nc1 (racemic)	136	17	28	70
c1ccc(Cc2nnc(N3CCN(c4ccccn4)CC3)c3ccccc23)cc1	772	258	643	1240
C[C@@H]1CN(c2nnc(Cc3ccccc3)c3ccccc23)CCN1c1ccc(C#N)cn1	244	30	17	34
c1ccc(N2CCN(c3nnc(Cc4ccncc4)c4ccccc34)CC2)nc1	4490	690	3690	> 5000
N#Cc1ccc(C2CCN(c3nnc(Cc4ccccc4)c4ccccc34)CC2)cc1	> 5000	3780	> 5000	> 5000
OC1(c2ccc(N3CCN(c4nnc(Cc5ccccc5)c5ccccc45)CC3)nc2)CC1	345	55	10	21
N#Cc1ccc(N2CCN(c3nnc(Cc4ccc(C(F)(F)F)cc4)c4ccccc34)CC2)nc1	1240	366	226	185
FC(F)(F)c1ccc(N2CCN(c3nnc(Cc4ccccc4)c4ccccc34)CC2)nc1	1330	134	74	95
N#Cc1ccc(N2CCN(c3ncc(Cc4ccccc4)c4ccccc34)CC2)nc1	2990	1430	> 5000	> 5000
NS(=O)(=O)c1ccc(N2CCN(c3nnc(Cc4ccccc4)c4ccccc34)CC2)nc1	919	104	90	306
FC(F)(F)c1ccc(N2CCN(c3nnc(Cc4ccccc4)c4ccoc34)CC2)nc1	> 5000	1800	> 5000	> 5000
OCc1ccc(N2CCN(c3nnc(Cc4ccccc4)c4ccccc34)CC2)nc1	2450	374	187	484
N#Cc1ccc(N2CCCN(c3nnc(Cc4ccccc4)c4ccccc34)CC2)nc1	1630	210	153	391
NC(=O)c1ccc(N2CCN(c3nnc(Cc4ccccc4)c4ccccc34)CC2)nc1	149	46	173	724
CC(=O)NCc1ccc(N2CCN(c3nnc(Cc4ccccc4)c4ccccc34)CC2)nc1	327	35	96	196

Compound	IC50 [1] [nM]	IC50 [2] [nM]	IC50 [3] [nM]	IC50 [4] [nM]
CC(O)c1ccc(N2CCN(c3nnc(Cc4ccccc4)c4ccccc34)CC2)nc1 (stereo unspecified)	222	38	61	67
N#Cc1ccc(N2CCN(c3nnc(Cc4ccc(Cl)cc4)c4ccccc34)CC2)nc1	498	48	20	25
CN(C)Cc1ccc(N2CCN(c3nnc(Cc4ccccc4)c4ccccc34)CC2)nc1	246	14	287	654
C[C@@H]1CN(c2ccc(C#N)cn2)CCN1c1nnc(Cc2ccccc2)c2ccccc12	738	86	180	217
O=C(O)c1ccc(N2CCN(c3nnc(Cc4ccccc4)c4ccccc34)CC2)nc1	> 5000	2670	1640	2260
N#Cc1ccc(N2CCN(c3nnc(Cc4ccccc4)c4ccccc34)CC2)nc1	821	69	71	112
C[C@H]1CN(c2nnc(Cc3ccccc3)c3ccccc23)CCN1c1ccc(C#N)cn1	735	79	66	59
N#Cc1ccc(N2CCC(c3cn(Cc4ccccc4)c4ccccc34)CC2)nc1	1510	382	386	401
FC(F)(F)c1ccc(N2CCN(c3nnc(Cc4ccccc4)c4occc34)CC2)nc1	2560	212	139	230
c1ccc(Cc2nnc(N3CCN(c4ccccc4)CC3)c3ccccc23)cc1	2250	414	1100	4240
N#Cc1ccc(N2CCN(c3nnc(Cc4cccc(Cl)c4)c4ccccc34)CC2)nc1	693	112	54	82
N#Cc1ccc(Cc2nnc(N3CCN(c4ccc(C#N)cn4)CC3)c3ccccc23)cc1	256	20	23	34
N#Cc1ccc(N2CCN(c3nnc(Cc4ccc(F)cc4)c4ccccc34)CC2)nc1	975	112	69	103
N#Cc1ccc(N2CCN(c3nnc(Cc4ccc(C(=O)O)cc4)c4ccccc34)CC2)nc1	> 5000	> 5000	> 5000	> 5000
FC(F)(F)c1ccc(N2CCN(c3nnc(Cc4ccccc4)c4[nH]cnc34)CC2)nc1	1550	724	> 5000	> 5000
COC(=O)c1ccc(Cc2nnc(N3CCN(c4ccc(C#N)cn4)CC3)c3ccccc23)cc1	> 5000	265	165	2930
C[C@H]1CN(c2ccc(C#N)cn2)CCN1c1nnc(Cc2ccccc2)c2ccccc12	210	25	22	17
